Legend:
[1] = biological target: Neuraminidase (Influenza A virus (A/Puerto Rico/8/1934(H1N1)), UniProt P03468); experiment: In vitro inhibitory activity against influenza A neuraminidase using enzymatic assay
[2] = test system: Influenza B virus; experiment: In vitro inhibitory activity against influenza B neuraminidase using enzymatic assay; assay type: functional

Chain of Neuraminidase (Influenza A virus (A/Puerto Rico/8/1934(H1N1)), UniProt P03468) (P03468 whole entry): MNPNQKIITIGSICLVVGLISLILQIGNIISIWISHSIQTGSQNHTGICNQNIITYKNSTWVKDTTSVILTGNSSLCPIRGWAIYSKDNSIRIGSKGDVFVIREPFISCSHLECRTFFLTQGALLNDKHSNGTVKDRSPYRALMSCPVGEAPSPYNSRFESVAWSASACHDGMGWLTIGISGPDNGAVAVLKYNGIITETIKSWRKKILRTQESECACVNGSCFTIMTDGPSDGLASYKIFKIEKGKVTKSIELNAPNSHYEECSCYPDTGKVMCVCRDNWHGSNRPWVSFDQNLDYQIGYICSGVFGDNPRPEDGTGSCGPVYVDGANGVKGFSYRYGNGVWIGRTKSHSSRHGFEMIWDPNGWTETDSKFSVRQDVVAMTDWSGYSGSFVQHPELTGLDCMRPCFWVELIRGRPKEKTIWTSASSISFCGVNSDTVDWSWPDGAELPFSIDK

Compound | IC50 [1] | IC50 [2]
CC[C@H](CC(=O)O)O[C@@H]1C=C(C(=O)O)C[C@H](N)[C@H]1NC(C)=O | 1150 nM | –
CC[C@@H](CCO)O[C@@H]1C=C(C(=O)O)C[C@H](N)[C@H]1NC(C)=O | 30 nM | 85 nM
CC[C@@H](CC(=O)O)O[C@@H]1C=C(C(=O)O)C[C@H](N)[C@H]1NC(C)=O | 450 nM | –
CC[C@H](CCO)O[C@@H]1C=C(C(=O)O)C[C@H](N)[C@H]1NC(C)=O | 40 nM | 400 nM
CCC(CC)O[C@@H]1C=C(C(=O)O)C[C@H](N)[C@H]1NC(C)=O [OSELTAMIVIR CARBOXYLATE] | – | 4 nM

Source: ChEMBL document CHEMBL1132511, “Stereospecific synthesis of a GS 4104 metabolite: determination of absolute stereochemistry and influenza neuraminidase inhibitory activity” (Bioorg Med Chem Lett, 1999)
